Data: patent US6767738B1, “Method of isolating adult mammalian CNS-derived progenitor stem cells using density gradient centrifugation” (The Salk Institute for Biological Studies, priority 1999, dated 2004)

Experiments:
[1] = tested on: PERCOLL isolated cells; experiment: Proliferation of PERCOLL isolated whole brain cells; assay type: cell-based, rat; conditions: 20 ng/ml bFGF in vitro
Experimental: Dissection. Adult female Fischer 344 rats (4-6 months of age) were anesthetized with a mixture of ketamine (44 mg/kg), acepromazine (0.75 mg/kg), and xylazine (4 mg/kg) in 0.9% NaCl and decapitated. The brains were removed and placed into cold phosphate-buffered saline (PBS).
Tissue Preparation. A cell suspension was obtained by pooling the brains from 6 animals from which the cerebella had been trimmed away. The remaining brain tissue was then weighed. The brains were diced into small fragments, and then digested for 40-50 min at 37° C. in Hanks' balanced salt solution containing 0.1% grade II neutral protease (Boehringer Mannheim), 0.01% papain (Worthington), and 0.01% Dnase I (Worthington). The mixture was shaken every five minutes. Every fifteen minutes during the digestion, the tissues were gently disrupted by pipetting the digestion reaction mixture through a 5-ml pipette. The tissue was then rinsed two times with DMEM/F12 containing 10% […] bovine serum, to inactivate digestive enzymes, and filtered through nylon mesh (Nitex, 100 μm pore size), to remove undissociated tissue. The filtered cells were resuspended to a final volume of 10 ml in DMEM/F12/10% FBS.
PERCOLL™ (polyvinylpyrrolidone-coated silica colloids) density gradient preparation and centrifugation. […]

[2] = tested on: clonal stem cells (AP14); experiment: RT-PCR analysis of p21, NeuroD, trk and p75NGFR mRNA in stem cell cultures; assay type: cell-based, rat
Experimental: Cell Culture. For proliferating conditions, clonal stem cells (AP14) were cultured in Dulbecco's Modified Eagles Medium/Ham's F12 (DMEM/F12, 1:1) containing N2 supplement (Gibco BRL, Gaithersburg, Md.) and 20 ng/ml rhFGF-2 (provided by A. Baird, Prizm Pharmaceuticals Inc., La Jolla, Calif.). Culture dishes (Becton Dickinsin Labware, Lincoln Park, N.J.) were coated with polyomithine and mouse laminin as previously described by Ray, et al., Proliferation, differentiation and long-term culture of primary hippocampal neurons, Proc Natl Acad Sci USA 90:3602-3606 (1993). For differentiation experiments, cells were plated into polyornithine/laminin coated glass chamber slides (Nunc, Naperville, Ill.) at a density of 2.5—103 per cm2. The cells were incubated for 24 hrs in normal N2 medium containing 20 ng/ml FGF-2, and then the medium was replaced by N2 medium containing 0.5% […] (FBS) and 0.01% DMSO (control solvent) or […] all-trans retinoic acid (Sigma, St. Louis, Mo.). For further differentiation, the medium was replaced by N2 medium containing 0.5% FBS and one of the following: sterile water (control solvent), mouse 2.55 NGF (50 ng/ml, Boehringer Mannheim, Indianapolis, Ind.), rhBDNF (20 ng/ml, Alomone Labs, Jerusalem, Israel), rhNT-3 (40 ng/ml, Genentech, South San Francisco, Calif.). The medium was replaced every two days. For inhibition of the tyrosine kinase activity of the Trk receptors, K-252a (100 nM, Calbiochem, San Diego, Calif.) was added to the medium.
Reverse Transcription-PCR Analysis. Total RNA from stem cells was isolated using RNeasy Total RNA Kits (Qiagen, Chatsworth, Calif.) according to manufacturer's instructions. Fifty nanograms of total RNA was reverse transcribed using avian myeloblastosis virus reverse transcriptase (Promega, Madison, Wis.) with random hexamers ([…]) as primers in a […] reaction mixture. For PCR amplification, two sets of specific oligonucleotide pairs ([…]) were used: one directed to the transcript of interest, and one for a constitutively expressed transcript, either ribosomal protein L27 or L27a. Reactions were performed in a […] reaction mixture containing 10 mM Tris-Cl (pH 8.4), 50 mm KCl, 1.5 mM MgC12, […] each of the four dNTPs, 2 mCi of [a-32P]dCTP and 5 units of Taq polymerase (Promega) using a thermal cycler (Perkin-Elmer, Foster City, Calif.) with a regimen of 1 min at 94° C., 2 min at 60° C. (55° C. for trk receptors) and 2 min at 72° C. for 23 cycles Fifty microliters of each reaction was analyzed by electrophoresis on 8% polyacrylamide gels followed by autoradiography. […] Under these conditions, the L27 amplification product was directly proportional to the amount of input RNA, up to 50 ng total RNA. Oligonucleotide primers used are as follows: […]

Compound	proliferation response [1]	p21 mRNA ([2]; RA treatment, peaked after roughly 5 days)	trkA mRNA ([2]; following RA treatment)	trkB mRNA ([2]; following RA treatment)	trkC mRNA ([2]; following RA treatment)	p75NGFR mRNA ([2]; following RA treatment, 7-day time course)	expression of NeuroD mRNA ([2]; within 24 hrs of FGF-2 withdrawal and RA treatment, 6 days)
FGF-2: basic fibroblast growth factor, human recombinant, prepared in E. coli	inducible to proliferate						
CC1=C(/C=C/C(C)=C/C=C/C(C)=C/C(=O)O)C(C)(C)CCC1 [RA, all-trans retinoic acid]		significant yet gradual increase	increased gradually and reached a plateau after 5 days	increased gradually and reached a plateau after 5 days	increased gradually and reached a plateau after 5 days	dramatically increased	increased and remained elevated
